Reference: US11242365B2, “FOXM1-derived peptide, and vaccine including same” (OncoTherapy Science, Inc., priority 2015, dated 2022)
Entries after “also recorded” stand apart in the source; their conditions may differ.

Tests used:
[1] = tested on: target cells (C1R-A01) pulsed with peptide; test: IFN-gamma ELISA of CTL clones established by limiting dilution (HLA-A*01:01); type: cell-based, human; conditions: CTL clone against peptide-pulsed C1R-A01; listed as FOXM1-A01-10-566
Procedure: After induction of CTLs in vitro, the CTLs were seeded onto 96-well round-bottomed microplates (Nalge Nunc International) at 1 cell/well or 10 cells/well. The CTLs were cultured with two types of Mitomycin C-treated human B lymphoblastoid cell lines (1×10^4 cells/well each) in a total of 150 micro-l/well 5% ABS/AIM-V medium with an anti-CD3 antibody (final concentration: 30 ng/ml) and IL-2 (final concentration: 125 IU/ml). Ten days later, 50 micro-l 5% ABS/AIM-V medium containing 500 IU/ml IL-2 was added to the culture.
(§1) Peptide-pulsed C1R-A01 (1×10^4 cells/well) was prepared as the target cell. The IFN-gamma ELISPOT assay and IFN-gamma ELISA were performed according to the assay kit manufacturer's manual.

[2] = tested on: target cells (C1R-A01) pulsed with peptide; test: IFN-gamma ELISA of CTL lines (HLA-A*01:01); type: cell-based, human; conditions: CTL line against peptide-pulsed C1R-A01; listed as FOXM1-A01-10-566
Procedure: CTLs were propagated using methods similar to those reported by Riddell et al. (Walter E A et al., N Engl J Med 1995, 333(16): 1038-44; Riddell S R et al., Nat Med 1996, 2(2): 216-23). The CTLs were cultured in 25 ml 5% ABS/AIM-V medium together with two types of Mitomycin C-treated human B lymphoblastoid cell lines (5×10^6 cells/25 ml medium each) and an anti-CD3 antibody (final concentration: 40 ng/ml). On the day after beginning of the culturing, IL-2 (final concentration: 120 IU/ml) was added to the culture. On days 5, 8 and 11, the medium was changed to a 5% ABS/AIM-V medium containing IL-2 (final concentration: 30 IU/ml) (Tanaka H et al., Br J Cancer 2001, 84(1): 94-9; Umano Y et al., Br J Cancer 2001, 84(8): 1052-7; Uchida N et al., Clin Cancer Res 2004, 10(24): 8577-86; Suda T et al., Cancer Sci 2006, 97(5): 411-9; Watanabe T et al., Cancer Sci 2005, 96(8): 498-506).
as §1

[3] = tested on: COS7 cells expressing FOXM1 and HLA-A*01:01; test: IFN-gamma production of CTL clone against target cells expressing FOXM1 and HLA-A*01:01; type: cell-based, African green monkey
From the text: A cDNA encoding the FOXM1 or HLA-A*01:01 gene was amplified by PCR. The PCR-amplified product was each incorporated into an expression vector. Either or both of the FOXM1 gene-expressing vector and the HLA-A*01:01 gene-expressing vector were introduced into COS7 cells, which is a cell line negative for HLA, using Lipofectamine 2000 (Invitrogen). On the day after gene introduction, COS7 cells were detached and harvested using versene (Invitrogen), and used as the target cell for confirmation of IFN-gamma production (5×10^4 cells/well).
IFN-gamma production of the FOXM1-A01-10-566 (SEQ ID NO: 56)-specific CTL clone against target cells expressing FOXM1 and HLA-A*01:01 was investigated. COS7 cells expressing both FOXM1 and HLA-A*01:01 were prepared as the target cell. COS7 cells expressing either one of FOXM1 and HLA-A*01:01 were prepared as the negative control cell. […] This clearly proves that FOXM1-A01-10-566 (SEQ ID NO: 56) is a peptide generated by antigen processing, and is presented on the cell surface with the HLA-A*01:01 molecule and recognized by CTLs.

Sequence: SSDPASOLSY (SSDPASQLSY; a peptide derived from FOXM1) [SEQ ID NO: 56]
- peptide-specific IFN-gamma production of CTL clone (ELISA) [1]: showed a peptide-specific IFN-gamma production
- IFN-gamma production by the CTL line (ELISA) [2]: observed; also recorded: CTL line that produce IFN-gamma in a peptide-specific manner was established
- IFN-gamma production of peptide-specific CTL clone ([3]; COS7 cells expressing both FOXM1 and HLA-A*01:01): showed IFN-gamma production
- IFN-gamma production of peptide-specific CTL clone ([3]; negative control: COS7 cells expressing either one of FOXM1 and HLA-A*01:01, listed as FOXM1-A01-10-566): a significant IFN-gamma production was not observed; also recorded: a significant IFN-gamma production was not shown
